{
  "source": "patent US20120196918A1",
  "about": "“PREVENTING ISLET INFLAMMATION AND DYSFUNCTION AND MAINTAINING PROPER GLUCOSE LEVELS BY CONTROLLING eIF5A AND ITS HYPUSINATION” (priority 2009, published 2012)",
  "key": {"Nos2 mRNA": {"system": "Nos2 mRNA", "assay": "Nos2 transcript levels in INS-1 cells (quantitative RT-PCR)", "type": "cell-based, rat", "details": "125 μM GC7, cytokines", "excerpt": "eIF5A1 and eIF5A2 are the only proteins known to contain the unique amino acid hypusine at position 50. Hypusine is formed as a posttranslational modification of residue Lys50 in a reaction requiring spermidine and catalyzed by the sequential actions of the enzymes deoxyhypusine synthase (DHS) and deoxyhypusine hydroxylase (DOHH) (Chen, K Y, and Liu, A Y. Biochemistry and function of hypusine formation on eukaryotic initiation factor 5A. Biol Signals. 1997; 6(3):105-109). […] To further investigate the mechanism of eIF5A-regulated translation of Nos2, studies were performed following overnight incubation of cells with mimosine (an inhibitor of DOHH) and GC7 (an inhibitor of DHS). […] Similar data using GC7 were obtained in primary mouse islets (data not shown) and in human islets (FIGS. 5F and 5G). […]\nQuantitative RT-PCR: Five micrograms of total RNA from islets or INS-1 cells were reverse-transcribed as detailed previously (77). cDNA was subjected to quantitative PCR using SYBR Green-based technology and published primers for mouse Ins1/2 pre-mRNA (78) and QuantiTech® primers (Qiagen) for all other mouse genes. […] All samples were corrected for total input RNA as quantitated by an Experion® (Bio-Rad) bioanalyzer. […]"}, "[1]": {"system": "LPS-treated NOD/Scid-(IL-2Rγ-null) mice", "assay": "LPS injection model in NOD/Scid-(IL-2Rγ-null) mice", "type": "in vivo, mouse", "details": "GC7 4 mg/kg/day i.p.", "experimental": "Because systemic GC7 delivery would be expected to inhibit hypusination in all cells that express DHS, it is unclear if the islet protection afforded by GC7 in vivo is a result of its effects in the islet, the immune cells, or both. In order to clarify this, the IL-1 responses in STZ-treated C57BL/6J animals were assessed by measuring levels of the IL-1-responsive cytokine IL-6. […] No alterations in serum levels of IL13 and Rantes/CCL5 were observed between treatment groups (FIG. 10F). […] To address the role of immune cells more directly, a mouse model was generated to test the role of hypusination in the islet inflammatory response independently of the immune system. Lipopolysaccharide (LPS) is an agent that evokes the NFkB response through activation of the toll-like receptor 4 (TLR4) (48), which is also expressed in pancreatic islets (49). […]\nGSIS and IPGTT studies: For GSIS studies using isolated islets, approximately 50 islets or 1×10^6 INS-1 cells per condition were washed and incubated in Krebs-Ringer HEPES-buffered (KRB) solution for one hour at 37° C., and then placed in KRB solution containing 3 mM or 11 mM glucose for one hour. […] Blood glucose was measured from samples taken from the tail vein before intraperitoneal injection of 1 g glucose per kg mouse weight, and at 10, 20, 30, 60, 90, 120, and 180 minutes after glucose administration using an A1phaTrak® glucometer (Abbott). […]"}, "INS-1 cells": {"system": "INS-1 cells", "assay": "Cell cycle analysis of INS-1 cells (propidium iodide cytometry)", "type": "cell-based", "experimental": "Because GC7 is known to be inactivated by the action amine oxidases, which are abundant in serum, typical studies with GC7 in the literature have used aminoguanidine to inhibit amine oxidases (16). […] To rule out possible adverse effects of GC7 on cell viability, quantitative 2 color fluorescence analysis of live (calcein-AM-positive) and dead (ethidium homodimer-1-positive) cells were performed using fluorescence cytometry.\nFor flow cytometry studies, INS-1 cells (serum starved or pretreated with GC7 as indicated in the figures) were stained with calcein-AM and ethidium homodimer 1 (Live/Dead® kit, Invitrogen) for 30 minutes, and 30,000 cells/sample were analyzed for green (living cells) and red (dead cells) fluorescence using a FACS Calibur (BD bioscience) instrument. For cell cycle analysis, 10^6 cells were washed in PBS and fixed in ice-cold 70% ethanol for 1 hour. After washing in PBS, cells were re-suspended in Guava cell cycle reagent (Millipore) and incubated at room temperature for 30 minutes. Intercalation of propidium iodide into cellular DNA was quantitated using a FACS Calibur instrument and the data analyzed for cell cycle status using Modfit software."}},
  "data": [
    {"smiles": "NCCCCCCCN=C(N)N", "note": "[GC7]", "values": [
      {"measurement": "Nos2 transcript levels", "setting": "Nos2 mRNA", "result": "remained disproportionately elevated"},
      {"measurement": "glucose intolerance in IPGTT 3 days after LPS", "setting": "[1]; LPS 20 mg/kg single injection", "result": "no evidence of glucose intolerance"},
      {"measurement": "iNOS staining intensity in islets", "setting": "[1]; LPS 20 mg/kg", "result": "increased iNOS staining intensity in islets of vehicle-treated animals, but not in GC7-treated animals"},
      {"measurement": "cell cycle progression", "setting": "INS-1 cells; 3 days GC7 exposure", "result": "cell cycle block was clearly apparent"},
      {"measurement": "cell cycle progression (G1-S)", "setting": "INS-1 cells; overnight GC7, any concentration", "result": "no significant effect on cell cycle progression"}
    ]}
  ]
}
